The source of these data is ChEMBL document CHEMBL1201862, “PubChem BioAssay data set” (2004).

Among the targets are Focal adhesion kinase 1 (Homo sapiens, UniProt Q05397); Aurora kinase A (Homo sapiens, UniProt O14965); Aurora kinase B (Homo sapiens, UniProt Q96GD4).
What all share (type): functional
The target of test [1] is Dual specificity mitogen-activated protein kinase kinase 1 (Homo sapiens, UniProt Q02750). Kind of test: Navigating the Kinome. Panel member name: MAP2K1.
Test [2] concerns the target Serine/threonine-protein kinase TBK1 (Homo sapiens, UniProt Q9UHD2). Kind of test: Navigating the Kinome. Panel member name: TBK1.
In test [3] the target is Dual specificity tyrosine-phosphorylation-regulated kinase 1B (Homo sapiens, UniProt Q9Y463). Kind of test: Navigating the Kinome. Panel member name: DYRK1B.
Test [4] concerns the target Mitogen-activated protein kinase kinase kinase kinase 2 (Homo sapiens, UniProt Q12851).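 Also: measured as one member of a kinome-wide kinase panel, with MAP4K2 as the panel entry.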
Test [5] has as its target Tyrosine-protein kinase Lck (Homo sapiens, UniProt P06239).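 Also: lck was assayed as one member of a kinase panel.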
Test [6] has as its target Tyrosine-protein kinase JAK3 (Homo sapiens, UniProt P52333).
Test [7] concerns the target Tyrosine-protein kinase BTK (Homo sapiens, UniProt Q06187).
For test [8], the target named is Vascular endothelial growth factor receptor 1 (Homo sapiens, UniProt P17948).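 Also: measured within a kinome-wide profiling panel, FLT1 as the panel member.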
Test [9] has as its target Serine/threonine-protein kinase pim-1 (Homo sapiens, UniProt P11309).
Test [10] concerns the target Mitogen-activated protein kinase 9 (Homo sapiens, UniProt P45984).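 Also: value from a kinome panel profiling assay, MAPK9 panel entry.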
Test [11] has as its target Fibroblast growth factor receptor 1 (Homo sapiens, UniProt P11362).
In test [12] the target is Leukocyte tyrosine kinase receptor (Homo sapiens, UniProt P29376). As to the kind of experiment: Navigating the Kinome. Panel member name: LTK.
Test [13] has as its target Platelet-derived growth factor receptor alpha (Homo sapiens, UniProt P16234). As to the kind of experiment: Navigating the Kinome. Panel member name: PDGFRA.
Test [14] deals with Proto-oncogene tyrosine-protein kinase receptor Ret (Homo sapiens, UniProt P07949).
Another test has as its target Activated CDC42 kinase 1 (Homo sapiens, UniProt Q07912). As to the kind of experiment: Navigating the Kinome. Panel member name: ACK1.
The target of test [15] is Mitogen-activated protein kinase kinase kinase kinase 4 (Homo sapiens, UniProt O95819).
For test [16], the target named is Vascular endothelial growth factor receptor 2 (Homo sapiens, UniProt P35968).
Test [17] addresses Cyclin-dependent kinase 9 (Homo sapiens, UniProt P50750).
Test [18] addresses Macrophage-stimulating protein receptor (Homo sapiens, UniProt Q04912). As to the kind of experiment: Navigating the Kinome. Panel member name: MST1R.
Test [19] addresses Ribosomal protein S6 kinase alpha-3 (Homo sapiens, UniProt P51812).
The target in test [20] is Hepatocyte growth factor receptor (Homo sapiens, UniProt P08581).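 Also: kinase panel profiling across the kinome, with MET as the panel member.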
Test [21] addresses Tyrosine-protein kinase ABL1 (Homo sapiens, UniProt P00519).
The target of the next test is Activin receptor type-1 (Homo sapiens, UniProt Q04771). Kind of test: Navigating the Kinome. Panel member name: ACVR1.
In test [22] the target is Serine/threonine-protein kinase Chk1 (Homo sapiens, UniProt O14757).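 Also: measured as one member of a kinome-wide kinase profiling panel.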
For a further test, the target named is LIM domain kinase 1 (Homo sapiens, UniProt P53667). Kind of test: Navigating the Kinome. Panel member name: LIMK1.

SMILES strings stand for the structures. Active and inactive are the calls of the source. Bounds are passed on as bounds.

Chain of Aurora kinase A (O14965 whole entry): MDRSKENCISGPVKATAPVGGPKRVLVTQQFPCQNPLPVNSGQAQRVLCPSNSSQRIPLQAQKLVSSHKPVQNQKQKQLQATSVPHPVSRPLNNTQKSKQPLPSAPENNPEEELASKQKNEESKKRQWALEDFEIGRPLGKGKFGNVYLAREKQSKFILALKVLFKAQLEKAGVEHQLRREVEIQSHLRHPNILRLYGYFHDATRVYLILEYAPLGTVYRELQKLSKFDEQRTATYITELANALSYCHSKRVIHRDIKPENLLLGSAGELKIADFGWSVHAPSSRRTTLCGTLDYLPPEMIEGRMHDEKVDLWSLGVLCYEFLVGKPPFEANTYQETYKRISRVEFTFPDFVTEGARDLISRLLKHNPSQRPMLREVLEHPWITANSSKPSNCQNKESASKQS
Chain of Tyrosine-protein kinase JAK3 (P52333 whole entry): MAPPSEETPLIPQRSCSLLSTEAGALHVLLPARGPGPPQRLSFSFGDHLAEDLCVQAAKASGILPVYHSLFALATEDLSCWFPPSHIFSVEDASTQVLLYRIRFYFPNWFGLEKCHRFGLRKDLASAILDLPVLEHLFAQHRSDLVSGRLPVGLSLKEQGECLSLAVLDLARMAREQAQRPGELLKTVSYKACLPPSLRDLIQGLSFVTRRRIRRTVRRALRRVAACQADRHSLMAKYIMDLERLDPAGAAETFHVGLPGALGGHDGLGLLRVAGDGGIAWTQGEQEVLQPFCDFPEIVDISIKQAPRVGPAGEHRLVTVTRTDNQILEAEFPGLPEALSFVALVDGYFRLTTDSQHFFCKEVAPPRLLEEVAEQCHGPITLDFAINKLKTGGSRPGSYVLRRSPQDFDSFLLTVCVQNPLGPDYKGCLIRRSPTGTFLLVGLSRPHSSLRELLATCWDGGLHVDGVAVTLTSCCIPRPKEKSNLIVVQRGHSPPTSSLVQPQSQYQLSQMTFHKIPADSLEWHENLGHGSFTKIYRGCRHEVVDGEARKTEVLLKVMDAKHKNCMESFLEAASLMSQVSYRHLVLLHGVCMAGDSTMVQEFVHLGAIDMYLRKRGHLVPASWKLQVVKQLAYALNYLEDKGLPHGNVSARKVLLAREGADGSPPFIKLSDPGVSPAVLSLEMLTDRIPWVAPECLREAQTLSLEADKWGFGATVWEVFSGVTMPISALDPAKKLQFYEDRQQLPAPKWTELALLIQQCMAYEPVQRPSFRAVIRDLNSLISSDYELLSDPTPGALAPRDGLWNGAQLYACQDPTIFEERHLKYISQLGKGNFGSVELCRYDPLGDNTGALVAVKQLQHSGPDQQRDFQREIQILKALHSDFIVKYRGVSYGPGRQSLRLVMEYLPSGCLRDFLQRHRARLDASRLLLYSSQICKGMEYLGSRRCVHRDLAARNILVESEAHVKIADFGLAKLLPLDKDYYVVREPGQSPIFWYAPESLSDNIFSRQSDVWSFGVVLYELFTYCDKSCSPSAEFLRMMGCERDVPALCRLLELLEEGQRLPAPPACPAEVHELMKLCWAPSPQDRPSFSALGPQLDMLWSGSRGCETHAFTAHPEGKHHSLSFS
Chain of Dual specificity mitogen-activated protein kinase kinase 1 (Q02750 whole entry): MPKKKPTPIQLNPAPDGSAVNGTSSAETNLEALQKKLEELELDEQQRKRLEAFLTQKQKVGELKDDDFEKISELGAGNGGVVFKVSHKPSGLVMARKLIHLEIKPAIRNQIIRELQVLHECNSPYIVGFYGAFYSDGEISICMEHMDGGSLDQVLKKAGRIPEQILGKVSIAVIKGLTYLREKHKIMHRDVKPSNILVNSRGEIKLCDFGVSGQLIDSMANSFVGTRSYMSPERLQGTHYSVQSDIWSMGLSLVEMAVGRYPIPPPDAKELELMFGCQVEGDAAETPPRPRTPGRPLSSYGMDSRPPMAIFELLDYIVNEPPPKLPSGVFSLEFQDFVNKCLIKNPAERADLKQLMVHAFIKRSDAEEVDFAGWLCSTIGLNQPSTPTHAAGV
Chain of Tyrosine-protein kinase BTK (Q06187 whole entry): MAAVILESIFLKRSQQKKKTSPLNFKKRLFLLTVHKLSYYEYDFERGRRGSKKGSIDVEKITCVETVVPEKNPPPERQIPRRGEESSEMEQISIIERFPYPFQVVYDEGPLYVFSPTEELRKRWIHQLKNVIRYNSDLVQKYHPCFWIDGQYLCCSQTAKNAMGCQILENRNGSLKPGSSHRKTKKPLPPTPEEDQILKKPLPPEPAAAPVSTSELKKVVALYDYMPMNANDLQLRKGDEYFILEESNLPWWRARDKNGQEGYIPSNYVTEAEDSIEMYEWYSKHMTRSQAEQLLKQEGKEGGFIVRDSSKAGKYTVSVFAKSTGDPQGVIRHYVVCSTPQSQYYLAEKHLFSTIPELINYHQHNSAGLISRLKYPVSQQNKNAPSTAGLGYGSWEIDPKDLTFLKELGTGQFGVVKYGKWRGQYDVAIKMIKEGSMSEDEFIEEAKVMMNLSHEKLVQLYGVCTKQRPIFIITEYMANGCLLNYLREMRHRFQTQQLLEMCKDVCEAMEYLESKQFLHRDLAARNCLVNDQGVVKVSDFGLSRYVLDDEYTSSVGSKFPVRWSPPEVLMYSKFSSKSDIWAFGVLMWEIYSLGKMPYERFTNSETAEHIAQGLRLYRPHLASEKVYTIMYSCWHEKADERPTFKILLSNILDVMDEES
Chain of Proto-oncogene tyrosine-protein kinase receptor Ret (P07949 whole entry): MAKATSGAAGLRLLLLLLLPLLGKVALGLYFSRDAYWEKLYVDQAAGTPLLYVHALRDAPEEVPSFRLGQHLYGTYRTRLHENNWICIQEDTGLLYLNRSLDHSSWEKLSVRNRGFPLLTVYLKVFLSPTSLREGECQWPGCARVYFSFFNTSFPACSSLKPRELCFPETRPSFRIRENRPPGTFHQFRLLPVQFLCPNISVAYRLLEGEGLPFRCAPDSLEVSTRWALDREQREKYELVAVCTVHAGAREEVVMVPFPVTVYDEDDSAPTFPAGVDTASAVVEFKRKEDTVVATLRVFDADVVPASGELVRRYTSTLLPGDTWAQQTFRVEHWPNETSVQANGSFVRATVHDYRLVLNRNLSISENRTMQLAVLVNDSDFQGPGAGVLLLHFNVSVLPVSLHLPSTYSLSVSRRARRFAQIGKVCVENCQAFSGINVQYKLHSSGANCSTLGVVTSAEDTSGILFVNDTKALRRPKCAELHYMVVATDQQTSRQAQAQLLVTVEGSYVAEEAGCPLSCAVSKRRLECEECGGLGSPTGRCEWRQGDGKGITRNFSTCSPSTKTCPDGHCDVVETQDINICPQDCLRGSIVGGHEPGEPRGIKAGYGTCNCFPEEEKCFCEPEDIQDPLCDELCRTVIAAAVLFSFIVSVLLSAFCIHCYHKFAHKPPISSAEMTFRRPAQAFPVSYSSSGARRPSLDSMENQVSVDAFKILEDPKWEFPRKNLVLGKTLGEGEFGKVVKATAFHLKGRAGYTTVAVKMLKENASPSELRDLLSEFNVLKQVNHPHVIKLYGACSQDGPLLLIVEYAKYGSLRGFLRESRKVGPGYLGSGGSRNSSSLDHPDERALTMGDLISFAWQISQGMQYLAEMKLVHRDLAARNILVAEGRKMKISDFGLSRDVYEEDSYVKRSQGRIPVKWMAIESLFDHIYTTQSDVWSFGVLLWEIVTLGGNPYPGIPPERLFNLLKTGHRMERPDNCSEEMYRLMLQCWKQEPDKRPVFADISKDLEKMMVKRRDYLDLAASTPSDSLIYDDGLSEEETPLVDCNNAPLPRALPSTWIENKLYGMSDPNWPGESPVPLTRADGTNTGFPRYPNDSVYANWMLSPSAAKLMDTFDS
Chain of Serine/threonine-protein kinase TBK1 (Q9UHD2 whole entry): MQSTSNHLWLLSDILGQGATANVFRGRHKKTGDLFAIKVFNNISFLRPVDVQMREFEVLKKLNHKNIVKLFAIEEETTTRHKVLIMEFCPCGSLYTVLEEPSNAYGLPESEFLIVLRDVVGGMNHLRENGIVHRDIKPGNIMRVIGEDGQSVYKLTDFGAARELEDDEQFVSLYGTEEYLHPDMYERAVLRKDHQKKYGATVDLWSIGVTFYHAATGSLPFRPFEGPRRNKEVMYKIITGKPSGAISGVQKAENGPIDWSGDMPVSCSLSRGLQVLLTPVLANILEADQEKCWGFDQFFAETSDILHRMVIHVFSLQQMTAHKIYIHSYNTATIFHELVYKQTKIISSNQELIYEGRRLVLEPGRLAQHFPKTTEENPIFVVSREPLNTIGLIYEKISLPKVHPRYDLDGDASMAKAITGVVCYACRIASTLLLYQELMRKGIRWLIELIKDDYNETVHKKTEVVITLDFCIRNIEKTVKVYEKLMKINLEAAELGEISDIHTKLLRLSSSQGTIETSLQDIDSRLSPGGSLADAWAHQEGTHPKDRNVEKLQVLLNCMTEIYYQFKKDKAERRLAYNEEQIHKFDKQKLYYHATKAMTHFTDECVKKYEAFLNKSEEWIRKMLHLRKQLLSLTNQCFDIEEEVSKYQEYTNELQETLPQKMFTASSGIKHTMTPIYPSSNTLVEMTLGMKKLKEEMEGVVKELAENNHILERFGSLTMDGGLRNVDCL
Chain of Mitogen-activated protein kinase 9 (P45984 whole entry): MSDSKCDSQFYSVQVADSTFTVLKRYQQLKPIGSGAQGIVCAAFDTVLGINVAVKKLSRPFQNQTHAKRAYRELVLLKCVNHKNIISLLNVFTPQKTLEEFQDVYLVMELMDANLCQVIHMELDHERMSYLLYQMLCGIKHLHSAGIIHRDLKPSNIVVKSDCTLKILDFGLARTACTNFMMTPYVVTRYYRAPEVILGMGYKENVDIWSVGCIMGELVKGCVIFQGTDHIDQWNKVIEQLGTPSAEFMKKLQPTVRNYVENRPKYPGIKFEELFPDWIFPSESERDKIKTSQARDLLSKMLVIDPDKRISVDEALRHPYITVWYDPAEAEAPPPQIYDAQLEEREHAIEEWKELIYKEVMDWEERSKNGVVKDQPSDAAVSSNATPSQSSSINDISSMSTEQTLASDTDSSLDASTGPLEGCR

What is called Ki is the equilibrium dissociation constant of an inhibitor or competing ligand from its target. With `CCCOc1cccc(C(C)NC(=O)c2ccc(-c3ccncc3F)cc2)c1` (configuration not stated), the Ki in test [1] is > 3.16 µM (inactive); at Focal adhesion kinase 1, > 6.31 µM (inactive); in [2] it was > 3.16 µM (inactive); in test [3], > 2.51 µM (inactive); in test [4], > 2.51 µM (inactive); in [5], > 6.31 µM (inactive). For the same compound, the Ki was > 5.01 µM (inactive) in [6]; > 6.31 µM (inactive) in [7]; > 3.98 µM (inactive) in test [8]; > 6.31 µM (inactive) in test [9]; > 3.98 µM (inactive) in [10]; > 3.98 µM (inactive) in test [11]. The Ki in [12] was > 2.51 µM (inactive); in test [13], > 2.51 µM (inactive); in test [14], > 3.16 µM (inactive); at Activated CDC42 kinase 1, > 3.98 µM (inactive); in [15], > 5.01 µM (inactive); at Aurora kinase A it was > 1.58 µM (inactive). The Ki in test [16] is > 2.51 µM (inactive); in test [17] it was > 1.58 µM (inactive); in [18], > 3.98 µM (inactive); in test [19] it was > 3.98 µM (inactive); in [20], > 2.51 µM (inactive).
In the case of `COc1cccc(C(C)NC(=O)c2cnc(-c3ccncc3)nc2)c1` (configuration not stated), the Ki in test [1] is > 3.16 µM (inactive); in test [2] it was > 3.16 µM (inactive); in test [3] it was > 2.51 µM (inactive); in [21] it was > 3.98 µM (inactive); in test [4], > 2.51 µM (inactive); in [6], > 5.01 µM (inactive). The Ki at Aurora kinase B was > 3.98 µM (inactive); at Activin receptor type-1, > 3.98 µM (inactive); in test [7], > 6.31 µM (inactive); in test [8], > 3.98 µM (inactive); in test [9] it was > 6.31 µM (inactive); in test [10] it was > 3.98 µM (inactive). The Ki in test [11] was > 3.98 µM (inactive); in test [12], > 2.51 µM (inactive); in test [13] it was > 2.51 µM (inactive); in [14] it was > 3.16 µM (inactive); on Activated CDC42 kinase 1, > 3.98 µM (inactive); in [15], > 5.01 µM (inactive). Further, the Ki is > 1.58 µM (inactive) on Aurora kinase A; > 3.16 µM (inactive) in test [22]; > 2.51 µM (inactive) in test [16]; > 1.58 µM (inactive) in test [17]; 0.398 µM (active) in test [18]; > 3.16 µM (inactive) at LIM domain kinase 1.
